Experimental data as given in patent US20190060261A1, “ACTIVE COMBINATIONS OF PERILLIC ACID AND ACTIVITY ENHANCING SUBSTANCES” (B.R.A.I.N BIOTECHNOLOGY RESEARCH AND INFORMATION NETWORK AG, priority 2016, published 2019).
In brackets after ≈: the same amount, converted by molar mass. Like-named read-outs stand apart in the source and are kept apart here.

What was measured:
[1] = system: Escherichia coli ATCC 8739; assay: Minimal inhibition concentration (MIC), microdilution method adapted from DIN EN ISO 20776-1:2006; type: cell-based; conditions: for MIC: Escherichia coli
From the text: (§1) The antimicrobial activity of different substances was examined and compared to perillic acid in vitro using the microdilution method adapted from DIN EN ISO 20776-1:2006. Besides perillic acid and its sodium salt, other organic acids like levulinic acid, p-anisic acid, benzoic acid and sorbic acid as well as alkane-1,2-diols such as hexane-1,2-diol, octane-1,2-diol and decane-1,2-diol were studied. Additionally, the commonly used preservatives 2-phenoxyethanol, 2-phenylethanol and benzyl alcohol were investigated.
(§2) All experiments were done in 96-well plates in a final volume of 200 μL. Test solutions of the investigated compounds were prepared in 25 mM buffered water. The procedure was conducted as following: 4 μL of the particular stock solution were mixed with 196 μL culture medium containing a defined inoculum of the respective target strain. Sterile controls (not inoculated) and growth controls (buffer instead of compound added) were performed. All compound concentrations were tested in triplicate for several times. The following contamination germs were examined: Escherichia coli ATCC 8739, Pseudomonas aeruginosa ATCC 9027, Stapyhlococcus aureus ATCC®6538, Bacillus subtilis subsp. spizizenii ATCC®6633, Candida albicans ATCC®10231 and Aspergillus brasiliensis ATCC®16404. The strains were cultivated either in Mueller-Hinton II Bouillon (Escherichia coli, Pseudomonas aeruginosa, Staphylococcus aureus), in yeast peptone dextrose (Bacillus subtilis, Candida albicans) or in potato dextrose medium (Aspergillus brasiliensis). All culture media were buffered with 25 mM MES-buffer. For compound testing, the plates were incubated at 37° C. for Escherichia coli, Pseudomonas aeruginosa and Staphylococcus aureus, at 28° C. for Bacillus subtilis and Candida albicans, and at 25° C. for Aspergillus brasiliensis. Plates were evaluated after 24 h and 72 h, respectively. The minimal inhibitory concentration (MIC) is defined as the concentration where no microbial growth was observed after 24 h and 72 h incubation at the specified temperature.
(§3) MIC-values are given according to the following letter code.

[2] = system: Aspergillus brasiliensis ATCC®16404; assay: Minimal inhibition concentration (MIC), microdilution method; type: cell-based; conditions: potato dextrose medium, 25 mM MES-buffer, 25° C., no growth after 24 h and 72 h; for MIC: Aspergillus brasiliensis, ATCC16404, read-out: MIC [A to D] Aspergillus brasiliensis
From the text: as §1, §2, §3

[3] = system: Bacillus subtilis subsp. spizizenii ATCC®6633; assay: as above; type: cell-based; conditions: for MIC: Bacillus subtilis
From the text: as §1, §2, §3

[4] = system: Candida albicans ATCC®10231; assay: as above; type: cell-based; conditions: for MIC: Candida albicans
From the text: as §1, §2, §3

[5] = system: Pseudomonas aeruginosa ATCC 9027; assay: as above; type: cell-based; conditions: for MIC: Pseudomonas aeruginosa
From the text: as §1, §2, §3

[6] = system: Stapyhlococcus aureus ATCC®6538; assay: as above; type: cell-based, Staphylococcus aureus; conditions: Mueller-Hinton II Bouillon, 25 mM MES-buffer, 37° C., no growth after 24 h and 72 h; for MIC: Staphylococcus aureus, ATCC6538, read-out: MIC [A to D] Staphylococcus aureus
From the text: as §1, §2, §3

[7] = system: Escherichia coli; assay: Combination of substances with perillic acid: reduction of the MIC of perillic acid; type: cell-based; conditions: test compound combined with perillic acid; experiments as in Example 1
Description: as §2
(§4) Activity of perillic acid was comparably low against Gram-negative bacteria. It was thus tested whether the respective MIC could be reduced by combination of perillic acid with selected substances.
(§5) Experiments were performed as described for Example 1 above. A reduction factor was determined, expressing the reduction of the MIC of perillic acid that was achievable by combination with the combination partner. For example, a reduction factor of 2 means that the MIC of perillic acid was reduced by a factor of 2 by combination of perillic acid with the respective activity enhancing substance.

[8] = system: Pseudomonas aeruginosa; assay: as above; type: cell-based; conditions: test compound combined with perillic acid; experiments as in Example 1
Description: as §2, §4, §5

[9] = ATCC8739, Mueller-Hinton II Bouillon, 25 mM MES-buffer, 37° C., no growth after 24 h and 72 h, read-out: MIC [A to D] Escherichia coli
[10] = yeast peptone dextrose, 25 mM MES-buffer, 28° C., no growth after 24 h and 72 h
[11] = Mueller-Hinton II Bouillon, 25 mM MES-buffer, 37° C., no growth after 24 h and 72 h
[12] = ATCC8739, read-out: MIC [A to D] Escherichia coli
[13] = ATCC6633, yeast peptone dextrose, 25 mM MES-buffer, 28° C., no growth after 24 h and 72 h, read-out: MIC [A to D] Bacillus subtilis
[14] = ATCC10231, yeast peptone dextrose, 25 mM MES-buffer, 28° C., no growth after 24 h and 72 h, read-out: MIC [A to D] Candida albicans
[15] = ATCC9027, Mueller-Hinton II Bouillon, 25 mM MES-buffer, 37° C., no growth after 24 h and 72 h, read-out: MIC [A to D] Pseudomonas aeruginosa

| Structure (SMILES) | MIC [1, 9] [µg/mL] | MIC [A to D] Bacillus subtilis [3, 10] | MIC [A to D] Candida albicans [4, 10] | Reduction factor (reduction of the MIC of perillic acid by combination with the test compound) Escherichia coli [7] | Reduction factor (reduction of the MIC of perillic acid by combination with the test compound) Pseudomonas aeruginosa [8] | MIC [2] [µg/mL] | MIC [3, 13] [µg/mL] | MIC [4, 14] [µg/mL] | MIC [5, 15] [µg/mL] | MIC [6] [µg/mL] | MIC [A to D] Aspergillus brasiliensis [2] | MIC [A to D] Pseudomonas aeruginosa [5, 11] | MIC [A to D] Staphylococcus aureus [6] | MIC [1, 12] [µg/mL] | MIC ([5]; ATCC9027, read-out: MIC [A to D] Pseudomonas aeruginosa) [µg/mL] | MIC [A to D] Escherichia coli [1, 11] | MIC ([3]; ATCC6633, read-out: MIC [A to D] Bacillus subtilis) [µg/mL] | MIC ([4]; ATCC10231, read-out: MIC [A to D] Candida albicans) [µg/mL] |
| --- | --- | --- | --- | --- | --- | --- | --- | --- | --- | --- | --- | --- | --- | --- | --- | --- | --- | --- |
| CCCCCCCCCCC(O)CO (stereo not drawn) [Dodecane-1,2-diol] | 5000 to 10000 (≈ 24.7 to 49.4 mM) | D (MIC<0.1% (w/v)) | D (MIC<0.1% (w/v)) |  |  |  |  |  |  |  | D (MIC<0.1% (w/v)) | D (MIC<0.1% (w/v)) | D (MIC<0.1% (w/v)) |  |  |  |  |  |
| CC(=O)C1C(=O)C=C(C)OC1=O (stereo not drawn) [Dehydroacetic acid] |  | D (MIC<0.1% (w/v)) | D (MIC<0.1% (w/v)) |  |  |  |  |  |  |  | D (MIC<0.1% (w/v)) |  | D (MIC<0.1% (w/v)) | 1000 to 5000 (≈ 5.95 to 29.7 mM) | 1000 to 5000 (≈ 5.95 to 29.7 mM) |  |  |  |
| C/C=C/C=C/C(=O)[O-].[K+] [Potassium sorbate] |  |  |  | 200 | 40 |  |  |  |  |  | A (MIC>1% (w/v)) | A (MIC>1% (w/v)) | A (MIC>1% (w/v)) | 5000 to 10000 |  |  | 1000 to 5000 | 5000 to 10000 |
| O=C([O-])c1ccccc1.[Na+] [Sodium benzoate] |  | D (MIC<0.1% (w/v)) | C (MIC=0.1-0.5% (w/v)) |  |  |  |  |  |  |  | A (MIC>1% (w/v)) | B (MIC=0.5-1% (w/v)) | B (MIC=0.5-1% (w/v)) |  |  | B (MIC=0.5-1% (w/v)) |  |  |

Continued, in another order:

| MIC [1, 9] [µg/mL] | MIC [A to D] Bacillus subtilis [3, 10] | MIC [A to D] Candida albicans [4, 10] | Reduction factor (reduction of the MIC of perillic acid by combination with the test compound) Escherichia coli [7] | Reduction factor (reduction of the MIC of perillic acid by combination with the test compound) Pseudomonas aeruginosa [8] | MIC [2] [µg/mL] | MIC [3, 13] [µg/mL] | MIC [4, 14] [µg/mL] | MIC [5, 15] [µg/mL] | MIC [6] [µg/mL] | Structure (SMILES) | MIC [A to D] Aspergillus brasiliensis [2] | MIC [A to D] Pseudomonas aeruginosa [5, 11] | MIC [A to D] Staphylococcus aureus [6] | MIC [1, 12] [µg/mL] | MIC ([5]; ATCC9027, read-out: MIC [A to D] Pseudomonas aeruginosa) [µg/mL] | MIC [A to D] Escherichia coli [1, 11] | MIC ([3]; ATCC6633, read-out: MIC [A to D] Bacillus subtilis) [µg/mL] | MIC ([4]; ATCC10231, read-out: MIC [A to D] Candida albicans) [µg/mL] |
| --- | --- | --- | --- | --- | --- | --- | --- | --- | --- | --- | --- | --- | --- | --- | --- | --- | --- | --- |
|  | D (MIC<0.1% (w/v)) | D (MIC<0.1% (w/v)) |  |  |  |  |  |  |  | C=C(C)[C@H]1CC=C(C(=O)O)CC1 [R-Perillic acid] | D (MIC<0.1% (w/v)) | B (MIC=0.5-1% (w/v)) | D (MIC<0.1% (w/v)) |  |  | C (MIC=0.1-0.5% (w/v)) |  |  |
| 5000 to 10000 (≈ 40.9 to 81.9 mM) |  |  | 40 | 8 | 5000 to 10000 (≈ 40.9 to 81.9 mM) | 5000 to 10000 (≈ 40.9 to 81.9 mM) | 5000 to 10000 (≈ 40.9 to 81.9 mM) | 5000 to 10000 (≈ 40.9 to 81.9 mM) | 5000 to 10000 (≈ 40.9 to 81.9 mM) | OCCc1ccccc1 [2-Phenylethanol, reference compound] |  |  |  |  |  |  |  |  |
| 1000 to 5000 (≈ 5.74 to 28.7 mM) | D (MIC<0.1% (w/v)) | D (MIC<0.1% (w/v)) |  |  |  |  |  | 1000 to 5000 (≈ 5.74 to 28.7 mM) |  | CCCCCCCCC(O)CO (stereo not drawn) [Decane-1,2-diol] | D (MIC<0.1% (w/v)) |  | D (MIC<0.1% (w/v)) |  |  |  |  |  |
| 5000 to 10000 (≈ 46.2 to 92.5 mM) |  |  | 20 | 5 | 5000 to 10000 (≈ 46.2 to 92.5 mM) | 5000 to 10000 (≈ 46.2 to 92.5 mM) | 5000 to 10000 (≈ 46.2 to 92.5 mM) | 5000 to 10000 (≈ 46.2 to 92.5 mM) | 5000 to 10000 (≈ 46.2 to 92.5 mM) | OCc1ccccc1 [Benzyl Alcohol, reference compound] |  |  |  |  |  |  |  |  |
